In paper PMC4864078, “De Novo Transcriptome Analysis and Detection of Antimicrobial Peptides of the American Cockroach Periplaneta americana (Linnaeus)” (PLoS ONE, 2016):
Entries after “also recorded” stand apart in the source; their conditions may differ.

Assays:
[1] = tested on: C. albicans (ATCC 14053); format: cell-based, Candida albicans; conditions: Mueller-Hinton Broth, 2 × 10^4 CFU/mL, 18 h at 37°C, visible turbidity, complete growth inhibition
Description: (§1) The bacterial strains E. coli (KACC 13821, ATCC 11775) and Staphylococcus aureus (KACC 10768, ATCC 25923), and the yeast strain Candida albicans (KCTC 7121, ATCC 14053) were purchased from the Korean Agricultural Culture Collection (KACC) and Korean Collection for Type Cultures (KCTC). Both bacteria and the yeast were cultivated overnight in tryptic soy broth (TSB; Difco, USA) at 200 rpm in a 37°C shaking incubator to the stationary phase. Bacteria were cultivated for 3 h in fresh TSB medium under the same condition to the log phase. The strains were stored with 15% glycerol at −70°C until use.
(§2) In addition, antimicrobial activities of the peptides were also tested by broth microdilution assays against E. coli, S. aureus, and C. albicans. Briefly, microbes were grown overnight in Mueller-Hinton Broth (MHB) to the onset of the stationary phase with shaking at 200 rpm. The cultures were diluted in fresh MHB to a final concentration of 2 × 10^4 CFU/mL. A stock solution of each peptide was prepared to a concentration of 640 μg/mL in 0.01% acetic acid, and was then serially diluted two-fold to reach a concentration of 10 μg/mL. After 90-μL aliquots of the microbial suspension were dispensed into each well of a 96-well polypropylene microtiter plate, 10 μL of the peptide solution was added. The antimicrobial activities of the peptides were assessed by measuring the visible turbidity in each well of the plate after 18 h of incubation at 37°C. Minimum inhibitory concentrations (MICs) are expressed as a specific value that caused complete growth inhibition.

[2] = tested on: E. coli (ATCC 11775); assay: Broth microdilution assay (MIC); format: cell-based, Escherichia coli; conditions: Mueller-Hinton Broth, 2 × 10^4 CFU/mL, 18 h at 37°C, visible turbidity, complete growth inhibition
Description: as §1, §2

[3] = tested on: S. aureus (ATCC 25923); assay: Broth microdilution assay (MIC); format: cell-based, Staphylococcus aureus; conditions: Mueller-Hinton Broth, 2 × 10^4 CFU/mL, 18 h at 37°C, visible turbidity, complete growth inhibition
Description: as §1, §2

[4] = tested on: Gram-negative bacteria, Gram-positive bacteria, and yeast; assay: Radial diffusion assay, statement over all three microbes; format: cell-based; conditions: increased in a dose-dependent manner, cleared zone after 12 h at 37°C
Description: as §1
(§3) The radial diffusion assay was performed to test the antimicrobial activities of peptides, as described previously with slight modifications. In brief, bacteria and yeast strains were grown to the mid-logarithmic phase in TSB at 37°C and then washed twice with 10 mM Tris-HCl (containing 5 mM glucose, pH 7.4). A total of 4 × 10^6 CFU was added to 10 mL of an underlay agarose gel [0.03% (w/v) TSB, 1% (w/v) agarose (Sigma, USA), and 0.02% (v/v) Tween 20 (Sigma, USA) in 10 mM Tris-HCl]. The underlay gel was poured into a 100-mm INTEGRID^TM Petri dish. After agarose solidification, 3-mm-diameter wells were punched and 5 μL of each peptide solution was added to each well. Buffer alone was used as a negative control. Plates were incubated at 37°C for 3 h to allow for diffusion of the peptides. The underlay gel was then covered with 10 mL of nutrient-rich agar overlay (6% TSB and 1% agarose in 10 mM Tris-HCl). […] This experiment was repeated at least 3 times and the same results were obtained.

[5] = tested on: C. albicans; assay: Radial diffusion assay; format: cell-based, Candida albicans; conditions: diameter of growth inhibition zone after 12 h; repeated three times
Description: as §1, §3

[6] = tested on: S. aureus; assay: Radial diffusion assay; format: cell-based, Staphylococcus aureus; conditions: diameter of growth inhibition zone after 12 h; compared with melittin; repeated three times
Description: as §1, §3

Sequence	Minimum Inhibitory Concentration (MIC) [1]	Minimum Inhibitory Concentration (MIC) [2]	Minimum Inhibitory Concentration (MIC) [3]	Antimicrobial activity in radial diffusion assay [4]	Antimicrobial activity against C. albicans (radial diffusion assay) [5]	Antimicrobial activity in S. aureus (radial diffusion assay) [6]
ANLLRHKVYGYCVLGPKGSSLGGIHGTWHDHHCSLIQRNPSTSTKGN [ISGCock_Contig13_3006, synthetic peptide, AMPA stretch of a predicted novel AMP from a P. americana transcript]	64 mg/L	64 mg/L	>64 mg/L	antimicrobial activity	–	–
CNYISFFRKCKNSQSTMYGCHRMNKCVFSSY [ISGCock_Contig07_3736–1, synthetic peptide, first AMPA stretch of a predicted novel AMP from a P. americana transcript]	>64 mg/L	>64 mg/L	>64 mg/L	antimicrobial activity	–	–
ISHNHLTAASITHVKNRGKYIYMHLKFRKTNVLI [ISGCock_Contig16_2060, synthetic peptide, AMPA stretch of a predicted novel AMP from a P. americana transcript]	16 mg/L	16 mg/L	16 mg/L	antimicrobial activity	–	–
LMLCKGFLRHSYKSIHERGTKRGKLCRISRLALSSLP [ISGCock_Contig10_4736–2, synthetic peptide, second AMPA stretch of a predicted novel AMP from a P. americana transcript]	32 mg/L	16 mg/L	>64 mg/L	antimicrobial activity	strong antimicrobial activity	greater than that of melittin
MKTFLRLYRSLINKVLHV [ISGCock_Contig05_0593, synthetic peptide, AMPA stretch of a predicted novel AMP from a P. americana transcript]	4 mg/L	4 mg/L	16 mg/L	antimicrobial activity	strong antimicrobial activity	greater than that of melittin; also recorded: highest antibacterial effect
RKKVWFIFHVCPKLKQRILSDTHAKNKCRLSPLLIKSTKIKNET [ISGCock_Contig16_4974, synthetic peptide, AMPA stretch of a predicted novel AMP from a P. americana transcript]	16 mg/L	16 mg/L	16 mg/L	antimicrobial activity	–	–
